Each structure is given as a SMILES string. pIC50: −log10 of the molar value. Some results are limits rather than exact numbers.

The results in this text go back to ChEMBL document CHEMBL5236671, “Synthesis and biological evaluation of novel aromatic amide derivatives as potential BCR-ABL inhibitors” (Bioorg Med Chem Lett, 2023).

One assay relates to K562. Kind of assay: Antitumor activity against human K562 cells assessed as inhibition of cell growth. It is filed as functional, cell-based.
Turning to `CN1CCN(Cc2ccc(C(=O)Nc3cc(-n4ccnc4)cc(C(F)(F)F)c3)cc2)CC1`, the pIC50 is 4.81.

As to `Cc1cn(-c2cc(NC(=O)c3ccc(CN4CCN(C)CC4)cc3)cc(C(F)(F)F)c2)c(C)n1`, the pIC50 is 4.97.

Regarding `Cc1cn(-c2cc(NC(=O)c3ccc(CN4CCN(C)CC4)cc3)cc(C(F)(F)F)c2)cn1`, the pIC50 was 4.87.

Regarding `Cc1cn(-c2cc(NC(=O)c3ccc(CN4CCOCC4)cc3)cc(C(F)(F)F)c2)cn1`, the negative-log IC50 (pIC50) was 4.63.

For the compound `Cc1cn(-c2cc(NC(=O)c3ccc(CN4CCN(C(=O)C5CC5)CC4)cc3)cc(C(F)(F)F)c2)cn1`, the pIC50 is 4.84.

As to `CCCCN1CCN(Cc2ccc(C(=O)Nc3cc(-n4ccnc4)cc(C(F)(F)F)c3)cc2)CC1`, the negative-log IC50 (pIC50) is 4.65.

`Cc1cn(-c2cc(NC(=O)c3ccc(CN4CCOC(C)C4)cc3)cc(C(F)(F)F)c2)cn1` (stereo not drawn): the pIC50 was 4.77.

In the case of `COc1ccc(NC(=O)c2ccc(CN3CCN(C)CC3)cc2)cc1-n1cc(C)nc1C`, the pIC50 was 4.50.

Regarding `CCN1CCN(Cc2ccc(C(=O)Nc3cc(-n4cnc(C)c4)cc(C(F)(F)F)c3)cc2)CC1`, the pIC50 was 4.88.

With `CN1CCN(Cc2ccc(C(=O)Nc3cc(-n4cnc(C#N)c4)cc(C(F)(F)F)c3)cc2)CC1`, the pIC50 was 4.88.

As for `Cc1cn(-c2cc(NC(=O)c3ccc(CN4CC(C)OC(C)C4)cc3)cc(C(F)(F)F)c2)cn1` (stereo not drawn), the pIC50 is 4.88.

A further assay relates to HL-60. Kind of assay: Antitumor activity against human HL-60 cells assessed as inhibition of cell growth. It is filed as functional, cell-based.
Consider `CN1CCN(Cc2ccc(C(=O)Nc3cc(-n4ccnc4)cc(C(F)(F)F)c3)cc2)CC1`, for which the pIC50 is 4.73.

Turning to `Cc1cn(-c2cc(NC(=O)c3ccc(CN4CCN(C)CC4)cc3)cc(C(F)(F)F)c2)c(C)n1`, the pIC50 is 4.77.

As for `Cc1cn(-c2cc(NC(=O)c3ccc(CN4CCN(C)CC4)cc3)cc(C(F)(F)F)c2)cn1`, the pIC50 is 4.67.

As to `Cc1cn(-c2cc(NC(=O)c3ccc(CN4CCOCC4)cc3)cc(C(F)(F)F)c2)cn1`, the negative logarithm of the IC50 (pIC50) was below 4.30.

With `Cc1cn(-c2cc(NC(=O)c3ccc(CN4CCN(C(=O)C5CC5)CC4)cc3)cc(C(F)(F)F)c2)cn1`, the negative-log IC50 (pIC50) was 4.87.

On to `CCCCN1CCN(Cc2ccc(C(=O)Nc3cc(-n4ccnc4)cc(C(F)(F)F)c3)cc2)CC1`, for which the pIC50 is 4.46.

Take `Cc1cn(-c2cc(NC(=O)c3ccc(CN4CCOC(C)C4)cc3)cc(C(F)(F)F)c2)cn1` (stereo not drawn): the pIC50 was 4.59.

As for `COc1ccc(NC(=O)c2ccc(CN3CCN(C)CC3)cc2)cc1-n1cc(C)nc1C`, the pIC50 was 4.63.

Consider `CCN1CCN(Cc2ccc(C(=O)Nc3cc(-n4cnc(C)c4)cc(C(F)(F)F)c3)cc2)CC1`, for which the pIC50 was 4.76.

Consider `CN1CCN(Cc2ccc(C(=O)Nc3cc(-n4cnc(C#N)c4)cc(C(F)(F)F)c3)cc2)CC1`, for which the negative-log IC50 (pIC50) was 4.73.

With `Cc1cn(-c2cc(NC(=O)c3ccc(CN4CC(C)OC(C)C4)cc3)cc(C(F)(F)F)c2)cn1` (stereo not drawn), the pIC50 is 4.66.

A further assay relates to MCF7. In words: Antitumor activity against human MCF7 cells assessed as inhibition of cell growth. Type of assay: functional, cell-based.
Turning to `CN1CCN(Cc2ccc(C(=O)Nc3cc(-n4ccnc4)cc(C(F)(F)F)c3)cc2)CC1`, the pIC50 was 4.54.

As to `Cc1cn(-c2cc(NC(=O)c3ccc(CN4CCN(C)CC4)cc3)cc(C(F)(F)F)c2)c(C)n1`, the pIC50 was 5.02.

Turning to `Cc1cn(-c2cc(NC(=O)c3ccc(CN4CCN(C)CC4)cc3)cc(C(F)(F)F)c2)cn1`, the pIC50 was 4.72.

`Cc1cn(-c2cc(NC(=O)c3ccc(CN4CCOCC4)cc3)cc(C(F)(F)F)c2)cn1`: the pIC50 was below 4.30.

Take `Cc1cn(-c2cc(NC(=O)c3ccc(CN4CCN(C(=O)C5CC5)CC4)cc3)cc(C(F)(F)F)c2)cn1`: the pIC50 is below 4.30.

Regarding `CCCCN1CCN(Cc2ccc(C(=O)Nc3cc(-n4ccnc4)cc(C(F)(F)F)c3)cc2)CC1`, the negative-log IC50 (pIC50) was 4.52.

On to `Cc1cn(-c2cc(NC(=O)c3ccc(CN4CCOC(C)C4)cc3)cc(C(F)(F)F)c2)cn1` (stereo not drawn), for which the pIC50 was below 4.30.

As to `COc1ccc(NC(=O)c2ccc(CN3CCN(C)CC3)cc2)cc1-n1cc(C)nc1C`, the pIC50 was 4.54.

For the compound `CCN1CCN(Cc2ccc(C(=O)Nc3cc(-n4cnc(C)c4)cc(C(F)(F)F)c3)cc2)CC1`, the pIC50 is below 4.30.

Regarding `CN1CCN(Cc2ccc(C(=O)Nc3cc(-n4cnc(C#N)c4)cc(C(F)(F)F)c3)cc2)CC1`, the pIC50 is 4.81.

`Cc1cn(-c2cc(NC(=O)c3ccc(CN4CC(C)OC(C)C4)cc3)cc(C(F)(F)F)c2)cn1` (stereo not drawn): the negative-log IC50 (pIC50) is 4.39.
